Literature values in patent publication US12091409B2, “Ether linked triazoles as NRF2 activators” (ASTEX THERAPEUTICS LIMITED, priority 2016, dated 2024).

Columns and labels:
[1] = test system: rats on a choline-deficient L-amino acid-defined diet; conditions: cited from earlier work
[2] = test system: COPD macrophages and alveolar macrophages from cigarette smoke-exposed mice; conditions: cited from earlier work
[3] = test system: NRF2 wild-type but not KO mice; conditions: after administration of tBHQ; cited from earlier work
[4] = test system: rats in a cerebral ischemia-reperfusion model; conditions: cited from earlier work

For O=C(NCc1ccccn1)Nc1nnc(-c2ccco2)o1 [NK-252], the “progression of histologic abnormalities, especially hepatic fibrosis” value [1] is given as “significantly attenuated”.
In the case of C[S+]([O-])CCCCN=C=S (centres unmarked) [Sulforaphane], the “expression of Macrophage Receptor with Collagenous structure (MARCO)” value [2] is given as “increases the expression of Macrophage Receptor with Collagenous structure (MARCO)”.
In the case of Cc1c(-c2cnccn2)ssc1=S [oltipraz], the “progression of histologic abnormalities, especially hepatic fibrosis” value [1] is listed as “significantly attenuated”.
For CC(C)(C)c1cc(O)ccc1O [tert-butylhydroquinone], the cortical glutathione levels [3] is given as “increased in NRF2 wild-type but not KO mice” and the cortical damage [4] is given as “reduced cortical damage”.
